Marks after values point to notes of the source that are not given here.

Here are results for 1 compound from patent EP0399422A1, “Benzocycloalkane derivatives and production thereof” (Takeda Chemical Industries, Ltd., priority 1989, dated 1990).

The subject of test [1] is Acyl-CoA:cholesterol acyl transferase (ACAT). Nature of the test: Acyl-CoA:cholesterol acyl transferase (ACAT) inhibiting activity. The test is classed as biochemical, male Sprague-Dawley rats. Further details: tested at 1 µM. To be noted: inhibition of labeled cholesterol ester formation at 10⁻⁶ M of the test compounds; small intestine mucosa microsome fraction. On the procedure: An ACAT enzyme preparation was obtained from the small intestine mucosa microsome fraction from male Sprague-Dawley rats of 6 weeks of age fasted for 20 hours, as described by Heider et al. [Journal of Lipid Research, 24, 1127 (1982)].
The ACAT activity was calculated by determining the yield of a labeled cholesterol ester from [1-¹⁴C]oleoyl-CoA and endogenous cholesterol using the method of Helgerud et al. [Journal of Lipid Research, 22, 271 (1981)].
The inhibition percentages of the labeled cholesterol ester formation at 10⁻⁶ M of the test compounds are shown in Table 1 as ACAT inhibiting activity indices.

For the next test, the system named is cholesterol-loaded rats. Nature of the test: Plasma cholesterol lowering activity in cholesterol-loaded rats. Format: in vivo, Male Sprague-Dawley rats. To be noted: 1% cholesterol diet containing 0.01% test compound for 4 days; dose 8.5 mg/kg/day; control group 266 + 46; p<0.01. On the procedure: Male Sprague-Dawley rats of 7 weeks of age were fed with a 1% cholesterol diet (containing 0.5% cholic acid and 5% olive oil) for 3 days, then grouped by plasma cholesterol level and further fed with the same diet containing 0.01% test compound for 4 days. Blood samples were collected at 8:30 a.m. to 10:00 a.m. while the animals were satiated, and plasma cholesterol levels were determined enzymatically. Intakes of the compound were calculated from food intake data.

As for `O=C(Nc1ccc(F)cc1F)N(Cc1ccccc1Cl)C1Cc2ccccc2C1` [Example 1, N-(2-chlorobenzyl)-N′-(2,4-difluorophenyl)-N-(2-indanyl)urea], in test [1], the “% ACAT inhibition” value was determined as 84%. In the test with cholesterol-loaded rats, the Plasma cholesterol is recorded as 128 + 47* mg/dl.
